US7781593B2, “5-phenyl-nicotinamide derivatives” (Hoffmann-La Roche Inc., priority 2006, dated 2010)

How the values were obtained:
[1] = target: T1, human cannabis CB1 receptor (Homo sapiens, UniProt P21554); assay: Affinity for cannabinoid CB1 receptors, [3H]-CP-55,940 radioligand binding on HEK cell membranes
T1 construct: expressed in transfected cells; host or cells: human embryonic kidney (HEK) cells, Semliki Forest Virus system, membrane preparation
Method: The affinity of the compounds of the invention for cannabinoid CB1 receptors was determined using membrane preparations of human embryonic kidney (HEK) cells in which the human cannabis CB1 receptor is transiently transfected using the Semliki Forest Virus system in conjunction with [3H]-CP-55,940 as radioligand. After incubation of a freshly prepared cell membrane preparation with the [3H]-ligand, with or without addition of compounds of the invention, separation of bound and free ligand was performed by filtration over glassfiber filters. Radioactivity on the filter was measured by liquid scintillation counting.
The compounds of formula (I) show an excellent affinity for the CB1 receptor, determined with the experimental conditions described in Devane et al. Mol. Pharmacol. 34 (1988) 605-613.

[2] = doses of 10 and 20 mg daily; cited from earlier work
[3] = wild-type versus CB1 receptor knockout mice; cited from earlier work

T1 sequence (P21554 whole entry): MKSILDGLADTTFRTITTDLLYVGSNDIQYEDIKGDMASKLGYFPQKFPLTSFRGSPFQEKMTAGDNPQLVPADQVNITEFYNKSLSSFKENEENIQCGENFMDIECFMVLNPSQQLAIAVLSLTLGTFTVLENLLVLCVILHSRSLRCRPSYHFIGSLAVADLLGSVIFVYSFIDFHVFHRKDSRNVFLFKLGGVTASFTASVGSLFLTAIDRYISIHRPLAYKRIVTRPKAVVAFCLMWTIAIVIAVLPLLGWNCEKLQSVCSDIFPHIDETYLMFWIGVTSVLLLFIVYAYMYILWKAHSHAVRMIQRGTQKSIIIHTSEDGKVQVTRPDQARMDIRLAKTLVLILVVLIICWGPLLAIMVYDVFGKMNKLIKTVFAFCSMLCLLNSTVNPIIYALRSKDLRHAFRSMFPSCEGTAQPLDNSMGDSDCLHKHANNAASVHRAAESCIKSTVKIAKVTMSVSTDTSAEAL

| SMILES | Ki [1] | body weight compared to placebo [2] | food intake [3] |
| --- | --- | --- | --- |
| O=C(N[C@@H]1CCCC[C@H]1O)c1cnc(CCc2cncnc2)c(-c2ccc(C(F)(F)F)cc2)c1 [Example 3, N-((1R,2R)-2-Hydroxy-cyclohexyl)-6-(2-pyrimidin-5-yl-ethyl)-5-(4-trifluoromethyl-phenyl)-nicotinamide] | 60 nM |  |  |
| O=C(N[C@@H]1CCCC[C@H]1O)c1cnc(CCC2CC2)c(-c2ccc(Cl)cc2)c1 [Example 2, 5-(4-Chloro-phenyl)-6-(2-cyclopropyl-ethyl)-N-((1R,2R)-2-hydroxy-cyclohexyl)-nicotinamide] | 26 nM |  |  |
| Cc1c(C(=O)NN2CCCCC2)nn(-c2ccc(Cl)cc2Cl)c1-c1ccc(Cl)cc1 [SR 141716] |  | significantly reduced body weight | reduces food intake in wild-type but not knockout mice |
| O=C(N[C@@H]1CCCC[C@H]1O)c1cnc(CCc2cccnc2)c(-c2ccc(Cl)cc2)c1 [Example 7, 5-(4-Chloro-phenyl)-N-((1R,2R)-2-hydroxy-cyclohexyl)-6-(2-pyridin-3-yl-ethyl)-nicotinamide] | 11 nM |  |  |
